Test results from article PMC4992173, “Divergent synthesis and identification of the cellular targets of deoxyelephantopins” (Nature Communications, 2016).

Legend:
recombinant IKKβ = recombinant IKKβ (Homo sapiens, UniProt O14920); test: Labeling of recombinant IKK-β with probe 24c; assay type: binding; settings: 10 µM 24c
[1] = target: T1, Protein transport protein Sec24C (SEC24C) (Homo sapiens, UniProt P53992); test: In situ competitive profiling in live MCF7 cells (LFQ): SEC24C; assay type: cell-based; settings: 4 h, then 10 µM 24c, n=4
T1 construct: endogenous in cells; host or cells: MCF7
Description: (§1) In our efforts to determine the direct molecular targets of deoxyelephantopin we first performed a gel-based competitive in situ proteomic profiling assay[41] […] While the greater conformational flexibility of probe 24c could potentially lead to more promiscuous target engagement relatively to deoxyelephantopin, it was favoured based on the fact that an alkyne moiety appended to the rigid scaffold of deoxyelephantopin may hinder some of its interactions. MCF7 cells were pretreated with various concentrations of deoxyelephantopin for 4 h, harvested, lysed and the lysates were treated with the fluorogenic probe 24c-Cy3 (10 μM; Supplementary Fig. 10). […] Furthermore, cells were pretreated with 20 μM concentration of deoxyelephantopin or 24c and the proteomic profiles were compared (Fig. 6b, Supplementary Fig. 11). Multiple bands were detected that were equally competed by both DEP and 24c, thus again confirming that 24c can be used as an acceptable clickable analogue of deoxyelephantopin in pulldown assays. Having established the optimal labelling conditions by SDS–PAGE, we next carried out a mass spectrometry-based competitive profiling assay[42] coupled with the method of stable isotope labelling of amino acids in culture (SILAC)[43]. […]
(§2) Figure 6 Proteome-wide identification of deoxyelephantopin targets. […] Quantification was performed using label-free quantification (LFQ) method (n=4). […]

[2] = target: T2, Thioredoxin domain-containing protein 12 (TXNDC12) (Homo sapiens, UniProt O95881); test: In situ competitive profiling in live MCF7 cells (LFQ): TXNDC12; assay type: cell-based; settings: 4 h, then 10 µM 24c, n=4
T2 construct: endogenous in cells; host or cells: MCF7
Description: as §1, §2

T1 sequence (P53992 whole entry): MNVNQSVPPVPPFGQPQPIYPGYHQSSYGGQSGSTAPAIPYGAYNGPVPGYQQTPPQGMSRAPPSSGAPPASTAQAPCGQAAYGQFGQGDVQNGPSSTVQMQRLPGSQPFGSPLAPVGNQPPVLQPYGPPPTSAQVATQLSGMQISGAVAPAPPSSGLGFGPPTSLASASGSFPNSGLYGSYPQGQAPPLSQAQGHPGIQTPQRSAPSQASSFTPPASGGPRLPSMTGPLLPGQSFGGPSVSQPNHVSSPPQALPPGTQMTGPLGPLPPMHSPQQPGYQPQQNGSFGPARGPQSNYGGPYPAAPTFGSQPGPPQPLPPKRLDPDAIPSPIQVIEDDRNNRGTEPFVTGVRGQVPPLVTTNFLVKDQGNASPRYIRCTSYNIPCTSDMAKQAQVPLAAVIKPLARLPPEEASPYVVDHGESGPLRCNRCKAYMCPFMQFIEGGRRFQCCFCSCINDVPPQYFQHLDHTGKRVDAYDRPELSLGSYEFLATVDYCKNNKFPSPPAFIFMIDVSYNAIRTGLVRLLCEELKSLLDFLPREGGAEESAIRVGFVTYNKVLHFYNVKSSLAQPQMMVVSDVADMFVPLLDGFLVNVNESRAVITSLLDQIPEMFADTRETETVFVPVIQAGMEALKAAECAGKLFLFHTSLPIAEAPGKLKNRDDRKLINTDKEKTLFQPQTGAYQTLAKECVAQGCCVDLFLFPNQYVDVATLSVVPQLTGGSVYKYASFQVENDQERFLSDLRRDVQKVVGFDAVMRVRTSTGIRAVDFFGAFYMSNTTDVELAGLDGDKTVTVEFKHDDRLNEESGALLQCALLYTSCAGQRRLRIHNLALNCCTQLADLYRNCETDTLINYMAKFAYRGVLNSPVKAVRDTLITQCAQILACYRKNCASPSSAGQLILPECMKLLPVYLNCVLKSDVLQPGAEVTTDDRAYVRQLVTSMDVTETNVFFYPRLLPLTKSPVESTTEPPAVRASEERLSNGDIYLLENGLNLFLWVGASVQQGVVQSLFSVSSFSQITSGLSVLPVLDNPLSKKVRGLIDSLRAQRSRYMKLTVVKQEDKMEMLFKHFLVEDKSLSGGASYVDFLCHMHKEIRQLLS
Sequence of recombinant IKKβ (O14920 whole entry): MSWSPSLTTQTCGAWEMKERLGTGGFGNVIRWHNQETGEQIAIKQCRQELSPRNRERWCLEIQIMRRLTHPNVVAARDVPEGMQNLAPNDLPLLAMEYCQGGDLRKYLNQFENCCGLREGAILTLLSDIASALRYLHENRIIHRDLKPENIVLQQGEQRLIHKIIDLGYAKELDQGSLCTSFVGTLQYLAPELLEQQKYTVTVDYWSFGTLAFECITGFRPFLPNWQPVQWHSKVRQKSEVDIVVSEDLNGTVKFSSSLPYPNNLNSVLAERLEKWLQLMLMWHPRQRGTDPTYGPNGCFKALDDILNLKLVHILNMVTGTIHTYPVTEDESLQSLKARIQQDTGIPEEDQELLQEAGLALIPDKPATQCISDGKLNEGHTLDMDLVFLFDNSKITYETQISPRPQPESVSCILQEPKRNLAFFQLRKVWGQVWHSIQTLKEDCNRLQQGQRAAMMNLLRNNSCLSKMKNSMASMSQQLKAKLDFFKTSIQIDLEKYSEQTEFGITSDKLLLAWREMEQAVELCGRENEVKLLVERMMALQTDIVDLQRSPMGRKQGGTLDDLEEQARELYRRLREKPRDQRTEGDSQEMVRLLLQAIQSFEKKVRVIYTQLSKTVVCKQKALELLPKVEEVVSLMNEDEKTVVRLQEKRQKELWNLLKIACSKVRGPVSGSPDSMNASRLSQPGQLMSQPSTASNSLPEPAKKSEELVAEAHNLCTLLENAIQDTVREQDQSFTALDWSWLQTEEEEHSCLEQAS
T2 sequence (O95881 27-172): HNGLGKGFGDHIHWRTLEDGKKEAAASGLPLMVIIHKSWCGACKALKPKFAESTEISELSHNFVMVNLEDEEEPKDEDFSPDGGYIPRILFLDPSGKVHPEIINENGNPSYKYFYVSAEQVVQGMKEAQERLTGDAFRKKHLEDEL

Row | Structure (SMILES) | covalent interaction with recombinant IKKβ (recombinant IKKβ) | LFQ ratio 20 µM Deoxyelephantopin/DMSO with 24c [1] | LFQ ratio 20 µM Deoxyelephantopin/DMSO with 24c [2]
1 | C#CCC[C@H](OC(=O)C(=C)C)[C@H]1C(=C)C(=O)O[C@@H]1c1ccccc1 [24c] | no evidence of covalent interaction |  | 
2 | C=C(C)C(=O)O[C@H]1CC2=C[C@@H](C/C(C)=C/[C@H]3OC(=O)C(=C)[C@H]13)OC2=O [deoxyelephantopin] |  | 0.18 | 0.0425
